# Non-standard residues stand in square brackets, D forms with d. Residues, ends and D or L forms follow the SMILES beside them. hArg = N=C(N)NCCCC[C@H](N)C(=O)O; Ac5c = NC1(C(=O)O)CCCC1; Aib = CC(C)(N)C(=O)O
# What was measured:
# [1] = target: T1, P1R (recombinant P1R chimera) in HKRK-B28 cells (UniProt P25107+P25961, A364S/A509S/A517P/A524T/DEL519-521/E344G/G506A/H528S/I365V/I416T/I429T/K402R/K465R/L320I/M408V/N352H/S511P/S523T/T335G/T421L/T487S/V367L/V433I); experiment: biochemical; format: binding, opposum/rat chimera; conditions: B28 cells
# T1 construct: the opposum P1R from the N-terminus to the mid region of TM3; the rat P1R from the mid region of TM3 to the C-terminus; expressed in transfected cells
# Text: (§1) Cell Culture. The cell line HKRK-B28 (Takasu, H., et al., J. Bone Miner. Res. 14:11-20 (1999)) was derived from the porcine kidney cell line, LLC-PK1 by stable transfection with plasmid DNA encoding a recombinant P1R chimera comprised of the opposum P1R from the N-terminus to the mid region of TM3 and the rat P1R from the mid region of TM3 to the C-terminus. The surface density of the P1R in these cells is ˜280,000 receptors per cell. The clonal cell line LdelNt-2 was derived from LLC-PK, cells via stable transfection with a plasmid encoding P1R-delNt, a recombinant human PTH-1 receptor construct in which most of the amino-terminal extracellular domain is deleted. These cells, as well as COS-7 cells and SaOS-2-B10 cells, were cultured at […] in T-75 flasks ([…]) in Dulbecco's modified Eagle's medium (DMEM) supplemented with fetal bovine serum (10%), penicillin G (20 units/ml), streptomycin sulfate (20 μg/ml) and amphotericin B (0.05 μg/ml) in a humidified atmosphere containing 5% CO2. Stock solutions of EGTA/trypsin and antibiotics were from GLBCO; fetal bovine serum was from Hyclone Laboratories (Logan, Utah). COS-7 cells sub-cultured in 24-well plates were transfected with plasmid DNA (200 ng per well) encoding the wild-type human P1R or truncated human P1R deleted for residues (24-181) (Shimizu, M., et al., J. Biol. Chem. 275:21836-21843 (2000)) that was purified by cesium chloride/ethidium bromide density gradient centrifugation, and FuGENE 6 transfection reagent (Roche Indianapolis Ind.) according to the manufacturer's recommended procedure. All cells, in 24-well plates, were treated with fresh media and shifted to 33° C. for 12 to 24 h prior to assay.
# Competition Binding. Binding reactions were performed with HKRK-B28 cells or in COS-7 cells in 24-well plates. The cells were rinsed with 0.5 mL of binding buffer, and then treated successively with 100 μL binding buffer, 100 μL of binding buffer containing various amounts of unlabeled competitor ligand, and 100 μL of binding buffer containing ca. 100,000 cpm of ^125I-[Aib^1,3,Nle^8,Gln^10,Har^11,Ala^12,Trp^14,Arg^19,Tyr^21]rPTH(1-21) (SEQ. ID. NO. 36) (ca. 26 fmol; final volume=300 μL). Incubations were 4 to 6 h at 4° C., at which time near equilibrium conditions were attained. Cells were then placed on ice, the binding medium was removed, and the monolayer was rinsed three times with 0.5 mL of cold binding buffer. The cells were subsequently lysed with 0.5 mL 5N NaOH and counted for radioactivity. For each tracer and in each experiment, the non-specific binding was determined as the radioactivity that bound in the presence of the same unlabeled peptide at a concentration of 1 μM, and was ˜1% of total radioactivity added for each tracer. The maximum specific binding (B0) was the total radioactivity bound in the absence of competing ligand, corrected for nonspecific binding, and for each tracer, ranged from 8% to 20% of the total radioactivity added. Nonlinear regression was used to calculate binding IC50 values (see below). Scatchard transformations of homologous competition binding data derived from studies with 26 fmol of ^125I-[Aib^1,3,Nle^8,Gln^10,Har^11,Ala^12,Trp^14, Arg^19,Tyr^21]rPTH(1-21) (SEQ. ID. NO. 36) were employed for estimations of apparent equilibrium dissociation constant (kDapps) and total number of ligand binding sites (Bmax), assuming a single class of binding sites and equal affinities of the iodinated and non iodinated ligand.
# Data Calculation. Calculations were performed using Microsoft® Excel. Nonlinear regression analyses of binding and cAMP dose-response data were performed using the four-parameter equation: yp=Min+[(Max−Min)/(1+(IC50/x)^slope)]. The Excel Solver function was utilized for parameter optimization, as described previously (Carter, P. H., et al., Endocrinology 140: 4972-4981 (1999); Bowen, W. P., and Jerman, J. C., Trends in Pharmacol. Sci. 16: 413-417 (1995)). […]
# [2] = system: P1R (recombinant P1R chimera) in HKRK-B28 cells; experiment: cAMP stimulation in HKRK-B28 cells; format: cell-based, opposum/rat chimera
# Text: as §1
# cAMP Stimulation. Stimulation of cells with peptide analogs was performed in 24-well plates. Cells were rinsed with 0.5 mL of binding buffer (50 mM Tris-HCl, 100 mM NaCl, 5 mM KCl, 2 mM CaCl2, 5% heat-inactivated horse serum, 0.5% fetal bovine serum, adjusted to pH 7.5 with HCl) and treated with 200 μL of cAMP assay buffer (Delbecco's modified Eagle's medium containing 2 mM 3-isobutyl-1-methylxanthine, 1 mg/mL bovine serum albumin, 35 mM Hepes-NaOH, pH 7.4) and 100 μL of binding buffer containing varying amounts of peptide analog (final volume=300 μL). The medium was removed after incubation for 30 to 60 minutes at room temperature, and the cells were frozen on dry ice, lysed with 0.5 mL 50 mM HCl, and refrozen ([…]). The cAMP content of the diluted lysate was determined by radioimmunoassay. The EC50 response values were calculated using nonlinear regression (see below).
# Data Calculation. Calculations were performed using Microsoft® Excel. Nonlinear regression analyses of binding and cAMP dose-response data were performed using the four-parameter equation: yp=Min+[(Max−Min)/(1+(IC50/x)^slope)]. The Excel Solver function was utilized for parameter optimization, as described previously (Carter, P. H., et al., Endocrinology 140: 4972-4981 (1999); Bowen, W. P., and Jerman, J. C., Trends in Pharmacol. Sci. 16: 413-417 (1995)). Differences between paired data sets were statistically evaluated using a one-tailed Student's t-test, assuming unequal variances for the two sets.
# T1 sequence (P25107+P25961 fused with the stated changes): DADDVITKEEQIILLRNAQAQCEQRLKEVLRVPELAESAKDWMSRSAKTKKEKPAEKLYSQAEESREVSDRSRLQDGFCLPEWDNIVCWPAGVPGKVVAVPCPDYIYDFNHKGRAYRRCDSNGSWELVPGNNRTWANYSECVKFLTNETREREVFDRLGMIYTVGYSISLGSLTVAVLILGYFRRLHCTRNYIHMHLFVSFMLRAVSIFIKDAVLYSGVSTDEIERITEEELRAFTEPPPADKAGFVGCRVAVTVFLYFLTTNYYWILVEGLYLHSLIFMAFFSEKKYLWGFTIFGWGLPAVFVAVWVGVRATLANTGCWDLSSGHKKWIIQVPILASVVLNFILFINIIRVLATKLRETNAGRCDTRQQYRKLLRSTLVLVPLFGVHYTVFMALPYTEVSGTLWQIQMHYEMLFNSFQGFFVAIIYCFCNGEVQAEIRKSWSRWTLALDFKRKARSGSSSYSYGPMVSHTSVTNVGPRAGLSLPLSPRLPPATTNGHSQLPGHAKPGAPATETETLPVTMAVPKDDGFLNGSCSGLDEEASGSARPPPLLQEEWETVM
compound,measurement,setting,value
"CC[C@H](C)[C@H](NC(=O)[C@H](CCC(=O)O)NC(=O)C(C)(C)NC(=O)[C@@H](NC(=O)C1(N)CCCC1)C(C)C)C(=O)N[C@@H](CCC(N)=O)C(=O)N[C@@H](CC(C)C)C(=O)N[C@@H](CCSC)C(=O)N[C@@H](Cc1c[nH]cn1)C(=O)N[C@@H](CCC(N)=O)C(=O)N[C@@H](CCCCNC(=N)N)C(=O)N[C@@H](C)C(=O)N[C@@H](CCCCN)C(=O)N[C@@H](Cc1c[nH]c2ccccc12)C(N)=O [[Ac5c^1,Aib^3,M]PTH(1-14), [Ac5c^1,Aib^3,Gln^10,Har^11,Ala^12,Trp^14]PTH(1-14)NH2] (H-[Ac5c]V[Aib]EIQLMHQ[hArg]AKW-NH2)","potency for inhibiting tracer binding relative to [Aib1,3,M]PTH(1-14)",[1],2 fold
same,"potency for stimulating adenylyl cyclase relative to [Aib1,3,M]PTH(1-14)",[2],2 fold
same,EC50,"[2]; HKRK-B28 cells, intracellular cAMP accumulation, read-out: cAMP-stimulating potency (EC50)",0.9 nM
same,increase in cAMP levels relative to basal,"[2]; HKRK-B28 cells, peptide at 10 nM",38 fold

# From patent US7795220B2, “Conformationally constrained parathyroid hormones with alpha-helix stabilizers” (The General Hospital Corporation, priority 2003, dated 2010)
